Series [1] has as its system T790M mutant cell line H1975. The following applies: background statement; almost no activity; cited from earlier work.
Series [2] concerns H1975 cells. Kind of series: Cytostatic activity by MTT method, H1975 cells. The series is classed as cell-based. Conditions: for IC50: Homo sapiens, read-out: H1975 cells (IC50/nM).
The subject of a further series is NIH3T3 cells. Kind of series: Cytotoxicity by MTT method, NIH3T3 cells.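 Note: cells grown in 96-well plates with compound for 72 h, then given MTT for a further 4 h at 37 °C under 5% CO2.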 The series is classed as cell-based. The following applies: Mus musculus, read-out: NIH3T3 cells MTT assay (IC50/nM). On the technique in general: Tetrazolium assays rely on reduction of a dye to a coloured formazan, in cell work by metabolically active cells.
In series [3] the test system is H1975 cells. Kind of series: ELISA screening EGFR T790M inhibitor for cell activity, H1975 cells. Format: cell-based. Conditions: for IC50: Homo sapiens, read-out: H1975 cells (IC50/nM).
The subject of series [4] is A431 cells. Kind of series: ELISA cell activity, EGF-stimulated A431 cells.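 Note: Serum-starved A431 cells pretreated with compound for 1 h, then stimulated with EGF for 45 min, lysates read by ELISA (OD450 minus OD570), EGF-only wells as control.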 Format: cell-based. Conditions: Homo sapiens. In general terms: ELISA stands for enzyme-linked immunosorbent assay.
Series [5] is described as follows: In vivo pharmacokinetic test in rats. The following applies: male, SD, rat, plasma; for half-life / clearance: IV 1 mg/kg; for half-life: read-out: Half-life T½ (converted); for bioavailability: oral gavage 20 mg/kg vs IV 1 mg/kg, read-out: Oral relative bioavailability F; for clearance: read-out: Clearance CL; for AUC / Cmax: route not given (IV 1 mg/kg, oral gavage 20 mg/kg); for AUC: read-out: Area under the curve AUC; for Cmax: read-out: Maximum plasma concentration Cmax. An excerpt: (§1) LC/MS/MS method was applied for the determination of the drug concentration in plasma at different times after the example compounds were orally and intravenously administered to rats or mice in order to study the pharmacokinetic behavior of the compounds of the invention in vivo in rats or mice and evaluate their pharmacokinetic characteristics.
(§2) Test Animals: healthy Adult male SD rats (weight 200-300 g, 6, fasted) or male CD1 mice (weight 20-30 g, 18, free access to water and food), provided by SLAC company;
(§3) Administration and Dosage: (1 mg/kg, 5 ml/kg, 5% DMAC (dimethylacetamide), 5% Solutol HS 15 (polyethylene glycol-15 hydroxystearate) and 90% saline was intravenously administered via foot dorsal vein and (20 mg/kg, 10 ml/kg, 0.5% CMC-Na solution) was administered via oral gavage to SD rats; (1 mg/kg, 5 ml/kg, 5% DMAC, 5% Solutol HS 15 and 90% Saline) was administered intravenously via tail vein and (5 mg/kg, 10 mL/kg, 0.5% CMC-Na aqueous solution) was administered via oral gavage to CD1 mice.
(§4) Blood collection: firstly, the animals which were selected to meet the test requirements prior to administration were weighed. The rats or mice were bound before the blood collection, blood from each administered rat was taken at predetermined time points (intravenous administration: blood was collected at 0.083, 0.25, 0.5, 1, 2, 4, 8, 24 h before and after administration respectively, 9 time points in total; gavage: blood was collected at 0.083, 0.25, 0.5, 1, 2, 4, 8, 24 h before and after administration respectively, 9 time points in total), about 150 μl of blood was collected via tail vein or heart (blood terminal). Blood from each administered mouse was taken blood at predetermined time points (tail vein: blood was collected at 0.083, 0.25, 0.5, 1, 2, 4, 8, 24 h, 8 time points in total; gavage: blood was collected at 0.25, 0.5, 1, 2, 4, 8, 24 h, 7 time points in total), about 150 μl of blood was collected via orbital or heart (blood terminal). Blood was transferred to a 1.5 ml tube to which K2EDTA was added previously. The collected blood sample was put on ice, and centrifuged to obtain plasma sample (2000 g, 5 min under 4° C.) within 15 minutes. All the plasma samples were stored at approximately −70° C. until analysis.
(§5) LC/MS/MS method was applied to determine the concentrations of the drug. At the same dose and administration, pharmacokinetic parameters of some example compounds of the invention in rats and mice were shown in Table 9: […]

Series [6] in a line: In vivo pharmacokinetic test in mice. The following applies: male, CD1, mouse, plasma; for half-life / clearance: IV 1 mg/kg; for half-life: read-out: Half-life T½ (converted); for bioavailability: oral gavage 5 mg/kg vs IV 1 mg/kg, read-out: Oral relative bioavailability F; for clearance: read-out: Clearance CL; for AUC / Cmax: route not given (IV 1 mg/kg, oral gavage 5 mg/kg); for AUC: read-out: Area under the curve AUC; for Cmax: read-out: Maximum plasma concentration Cmax.
Text: as §1, §2, §3, §4, §5

Series [7] concerns A431 cells. Kind of series: Cytostatic activity by MTT method, A431 cells.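 Note: viability read by MTT reduction after compound exposure, with MTT incubated for a further 4 h at 37 °C under 5% CO2 in 96-well plates.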 Conditions: Homo sapiens, A-431, 72 h, read-out: A431 cells (IC50/nM).
The next series addresses EGFR WT kinase (Homo sapiens (Human), UniProt P00533). Kind of series: Wild type EGFR kinase inhibition test (z-lyte). Format: biochemical. Conditions: 10 μM ATP.
The mark [8] stands for this setting: NIH3T3, cytotoxicity, MTT, 72 h.
Where [9] appears, read: A-431, ELISA, compound 1 h then EGF 45 minutes, read-out: A431 cells (IC50/nM).

Where two headings read alike, the source gives them in different places.

Usually half-life stands for the time in which the quantity being followed falls by half. The term clearance denotes a measure of how efficiently the substance is removed, as volume per time. As a reminder, the AUC is concentration integrated over time.

Chain of EGFR WT kinase (P00533 25-1210): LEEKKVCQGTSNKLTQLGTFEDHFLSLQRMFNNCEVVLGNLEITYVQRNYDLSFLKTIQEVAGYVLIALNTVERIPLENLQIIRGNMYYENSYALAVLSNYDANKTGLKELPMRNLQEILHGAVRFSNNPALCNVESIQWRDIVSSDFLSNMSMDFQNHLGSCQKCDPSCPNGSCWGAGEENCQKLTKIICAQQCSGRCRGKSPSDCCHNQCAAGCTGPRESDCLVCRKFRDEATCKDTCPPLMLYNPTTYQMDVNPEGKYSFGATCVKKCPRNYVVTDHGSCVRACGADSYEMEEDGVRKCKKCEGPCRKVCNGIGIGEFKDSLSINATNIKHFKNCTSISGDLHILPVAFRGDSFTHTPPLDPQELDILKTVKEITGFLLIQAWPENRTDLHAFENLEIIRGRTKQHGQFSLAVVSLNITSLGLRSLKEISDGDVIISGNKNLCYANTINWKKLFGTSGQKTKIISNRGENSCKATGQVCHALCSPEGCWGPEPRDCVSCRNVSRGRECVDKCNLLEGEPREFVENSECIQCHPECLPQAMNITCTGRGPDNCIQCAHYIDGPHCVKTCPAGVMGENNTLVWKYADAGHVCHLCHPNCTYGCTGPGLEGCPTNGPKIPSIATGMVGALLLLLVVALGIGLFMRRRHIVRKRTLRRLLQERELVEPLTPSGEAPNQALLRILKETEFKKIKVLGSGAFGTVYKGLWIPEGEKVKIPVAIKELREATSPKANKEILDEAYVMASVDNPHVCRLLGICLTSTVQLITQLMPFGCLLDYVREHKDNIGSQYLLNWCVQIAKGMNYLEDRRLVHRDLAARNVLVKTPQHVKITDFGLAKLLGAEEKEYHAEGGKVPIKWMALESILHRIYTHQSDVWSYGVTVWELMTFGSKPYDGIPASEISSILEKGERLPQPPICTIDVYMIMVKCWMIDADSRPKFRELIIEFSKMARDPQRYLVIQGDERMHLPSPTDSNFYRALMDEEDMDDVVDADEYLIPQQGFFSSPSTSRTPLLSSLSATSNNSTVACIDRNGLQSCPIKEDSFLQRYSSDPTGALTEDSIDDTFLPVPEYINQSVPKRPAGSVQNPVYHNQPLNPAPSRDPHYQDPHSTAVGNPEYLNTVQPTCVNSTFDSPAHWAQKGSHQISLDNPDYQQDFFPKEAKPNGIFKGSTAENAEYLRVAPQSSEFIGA

In the case of `C#Cc1cccc(Nc2ncnc3cc(OCCOC)c(OCCOC)cc23)c1` [erlotinib], the “activity in T790M mutant cell line H1975” value in series [1] is listed as “greater than 3 uM”.

`COc1cc2ncnc(Nc3ccc(F)c(Cl)c3)c2cc1OCCCN1CCOCC1` [gefitinib]: in series [1], the “activity in T790M mutant cell line H1975” value was “greater than 3 uM”.

As for `C=CC(=O)Nc1cc(Nc2nccc(-c3cn(C)c4ccccc34)n2)c(OC)cc1N(C)CCN(C)C` [comparative compound 1, reference compound], the IC50 in the series with H1975 cells [2] (NCI-H1975, 72 h) was 13 nM; in the series with NIH3T3 cells (NIH3T3, 72 h), 3550 nM; in the series on H1975 cells [3] (NCI-H1975, 1 h), 29 nM; in the series with A431 cells [4] (A-431, read-out: A431 cells (IC50/nM)) it was […]; with A431 cells [7], […]. In addition, the half-life was 8.28 h in series [5] and 1.99 h in series [6]. The bioavailability worked out at 18.5% in series [5] and 30.2% in series [6].

Consider `C=CC(=O)Nc1cc(Nc2ncc(Cl)c(-c3cnn(C)c3)n2)c(OC)cc1N1CCC(N(C)C)CC1` [Compound Z-89, N-(5-(5-chloro-4-(1-methyl-1H-pyrazol-4-yl)pyrimidin-2-ylamino)-2-(4-(dimethylamino)piperidin-1-yl)-4-methoxyphenyl)acrylamide], for which the IC50 with H1975 cells [2] (NCI-H1975, MTT, 72 h) was determined as 19 nM; in the series on NIH3T3 cells (setting [8]) it was 4040 nM; in the series on H1975 cells [3] (NCI-H1975, ELISA, compound 1 h) it was 15 nM; in the series with A431 cells [4] (setting [9]) it was 4790 nM; with A431 cells [7] it was 1730 nM. Also, the clearance is 43.5 mL/min/kg in [5] and 47.7 mL/min/kg in [6]. Besides, the values for the half-life in [5] and in series [6] were 7.05 h and 4.43 h, respectively. The bioavailability was 102% in series [5] and 59.7% in series [6]. For the same molecule, the area under the curve (AUC) in [5] turned out to be 7190 ng·h/mL; in series [6], 1040 ng·h/mL. The Cmax in series [5] turned out to be 437 ng/mL; in series [6], 85.3 ng/mL.

`C=CC(=O)Nc1cc(Nc2ncc(F)c(-c3cnn(C)c3)n2)c(OC)cc1N1CCC(N(C)C)CC1` [Compound Z-90, N-(2-(4-(dimethylamino)piperidin-1-yl)-5-(5-fluoro-4-(1-methyl-1H-pyrazol-4-yl)pyrimidin-2-ylamino)-4-methoxyphenyl)acrylamide]: the IC50 on EGFR WT kinase is 102 nM; in the series on H1975 cells [2] (NCI-H1975, MTT, 72 h) it was 17 nM; with NIH3T3 cells (setting [8]), greater than 10000 nM; in the series with H1975 cells [3] (NCI-H1975, ELISA, compound 1 h), 34 nM; in the series with A431 cells [4] (setting [9]) it was 1690 nM; in the series with A431 cells [7] it was 2390 nM. Besides, the “selective inhibitory activity against the cell growth [IC50 (A431 cells)/IC50 (H1975 cells)]” value with H1975 cells [2] (MTT, ratio of IC50 values) is listed as 140.6. For the same molecule, the “Selective inhibitory activities of target on cellular level [IC50 (A431 cells)/IC50 (H1975 cells)]” value with H1975 cells [3] (ELISA, ratio of IC50 values) is 50. In addition, the clearance is 43.9 mL/min/kg in series [5] and 65.5 mL/min/kg in series [6]. For the same molecule, the half-life in series [5] is 7.02 h; in series [6], 4.65 h. Also, the bioavailability in series [5] amounted to 92.6%; in [6], 66.4%. The results for the AUC in [5] and in [6] were 6480 ng·h/mL and 657 ng·h/mL, respectively. Besides, the Cmax in series [5] was found to be 408 ng/mL; in series [6] it was 90.6 ng/mL.
